Patent US6291640A, “Peptidomimetic inhibitors of the human cytomegalovirus protease” (Boehringer Ingelheim Ltd., priority 1998, dated 2001)
Starred links: 1 amine or outer side, 2 acyl side, 3 side chain; linkers in the order of their positions; H or OH if unused. Non-standard residues stand in square brackets, D forms with d. Residues, ends and D or L forms follow the SMILES beside them. ξ: configuration not given here. *: point of attachment. ξ3Amino2oxobutanoyl = CC(N[*:1])C(=O)C(=O)[*:2]; NHBn = c1ccc(CN*)cc1; ξNva = CCCC(N)C(=O)O; CF3 = FC(F)(F)*

Target: T1, HCMV No protease (Human cytomegalovirus, UniProt P16753)
T1 construct: at a position located near the center of the precursor (R-site) to excise the catalytic domain (No)
T1 sequence (P16753 1-256): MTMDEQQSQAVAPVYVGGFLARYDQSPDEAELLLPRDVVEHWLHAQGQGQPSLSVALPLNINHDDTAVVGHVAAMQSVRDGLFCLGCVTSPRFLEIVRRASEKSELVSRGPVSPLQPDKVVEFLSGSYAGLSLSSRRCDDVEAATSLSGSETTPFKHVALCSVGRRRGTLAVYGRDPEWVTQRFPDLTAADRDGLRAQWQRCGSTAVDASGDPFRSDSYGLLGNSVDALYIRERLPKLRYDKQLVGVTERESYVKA
Assay: biochemical
Settings: not given
Description: HCMV No protease assay: HCMV No protease was assayed with an internally quenched fluorogenic substrate based on the maturation cleavage site (Abz-[…](3-NO2)R-OH, kcat /KM =260 M^-1 s^-1) . […] A protocol adaptable to a 96-well plate format was designed for the determination of IC50 values of inhibitors. […] After this period, enzymatic hydrolysis was initiated by addition of the fluorogenic substrate and the reaction was performed for 2 hr at 30° C. […] No quenching was required before fluorescence measurement since the total scanning time by the plate reader accessory was brief relative to the duration of the reaction. The incubation buffer (essentially similar to the pre-incubation buffer) contained 50 mM Tris/HCl pH 8, 0.5M Na2 SO4, 50 mM NaCl, 0.1 mM EDTA, 1 mM TCEP, 3% v/v DMSO and 0.05% w/v Casein. The final concentrations of HCMV N, protease (expressed in terms of total monomer concentration) and substrate were 100 nM and 5 μM respectively. IC50 values were obtained through fitting of the inhibition curve to a competitive inhibition model using SAS NLIN procedure. The mode of inhibition was determined by measurements of the initial rates (in cuvettes) at various substrate (Abz-Tbg-Tbg-Asn(Me)2 -Ala-SSRLY(3-NO2)R-OH) and inhibitor concentrations using the same conditions as above.

Structure (SMILES) | IC50 [µM]
CC(NC(=O)[C@H](CC(=O)N(C)C)NC(=O)[C@@H](NC(=O)CC(C)(C)C)C(C)(C)C)P(=O)(Oc1ccccc1)Oc1ccccc1 (stereo partly drawn) [Compound 79, Diphenyl N4 ,N4-dimethyl-N1-(1-aminoethylphosphinate)-(2S)-2-{[(1S)-2,2-dirmethyl-1-(neopentylcarboxamido)propyl]carboxamido}butanediamide] | 0.66 ± 0.06

Same assay, conditions: IC50 (μM)

Structure (SMILES) | IC50 [µM]
CC(=O)N[C@@H](CO)C(=O)N[C@@H](Cc1ccc(O)cc1)C(=O)N[C@H](C(=O)N[C@@H](CCCCN)C(=O)NC(C)C(=O)C(=O)NCc1ccccc1)C(C)C (stereo partly drawn) [Compound 218, Ac-Ser-Tyr-Val-Lys-Ala(d,l)-C(O)-NH-CH2 -Ph] (Ac-SYVK[ξ3Amino2oxobutanoyl]-NHBn) | 9.4

Same assay, conditions: inhibitor pre-incubated 5 hr at 30° C. with enzyme, fluorogenic substrate; read-out: IC50

Structure (SMILES) | IC50 [µM]
CC(NC(=O)[C@@H](CC(=O)C(NC(=O)CC(C)(C)C)C(C)(C)C)CC(=O)N(C)C)C(=O)C(F)(F)C(F)(F)F (mixture of isomers) [Compound 312, N^4,N^4 -Dimethyl-N^1-[1-(R/ S)-methyl-2-oxo-3,3,4,4,4-pentafluorobutyl]-(2S)-2-{3-[(3,3-dimethyl-1-oxobutyl)-amino]-4,4-dimethyl-2-oxopentyl}-butanediamide] | 5.8
CCCC(NC(=O)[C@H](CC(N)=O)NC(=O)[C@@H](NC(=O)[C@@H](NC(C)=O)C(C)C)C(C)C)C(=O)C(F)(F)F (some centres unmarked) [Compound 45] (Ac-VVN[ξNva]-CF3) | > 300
Cc1ccc2nc(C(=O)C(C)NC(=O)[C@H](CC(=O)N(C)C)NC(=O)[C@@H](NC(=O)CC(C)(C)C)C(C)(C)C)oc2c1 (stereo partly drawn) [Compound 82, N4,N4-dimethyl-N1-[1-methyl-2-(6-methyl-1,3-benzoxazol-2-yl)-2-oxoethyl]-(2S)-2-{[(1S)-2,2-dimethyl-1-(neopentylcarboxamido)propyl]carboxamido}butanediamide] | 0.6 ± 0.1
CC[C@@H](NC(=O)C(=O)C(C)NC(=O)[C@H](CC(=O)N(C)C)NC(=O)[C@@H](NC(=O)[C@@H](NC(=O)CCCCCNC(=O)OC(C)(C)C)C(C)(C)C)C(C)(C)C)c1ccccc1 (some centres unmarked) [Compound 96] | 0.057
CC[C@@H](NC(=O)C(=O)C(C)NC(=O)[C@H](CC(=O)N(C)C)NC(=O)[C@@H](NC(=O)[C@@H](NC(=O)CCCCCN)C(C)(C)C)C(C)(C)C)c1ccccc1 (some centres unmarked) [Compound 97] | 0.073
CC(NC(=O)[C@H](CC(=O)N1CCCC1)NC(=O)[C@@H](NC(=O)CC(C)(C)C)C(C)(C)C)C(=O)C(=O)NCc1ccc(I)cc1 (some centres unmarked) [Compound 98] | 0.34
C[C@H](NC(=O)[C@H](CC(=O)N1CCCC1)NC(=O)[C@@H](NC(=O)CC(C)(C)C)C(C)(C)C)C(=O)c1nc2ccccc2o1 [Compound 304] | 0.5
CC(NC(=O)[C@H](CC(=O)N1CCCC1)NC(=O)[C@@H](NC(=O)CC(C)(C)C)C(C)(C)C)C(=O)C(=O)NCCOCc1ccccc1 (some centres unmarked) [Compound 305] | 0.3
CC(NC(=O)[C@H](CC(=O)NC(C)(C)C)NC(=O)[C@@H](NC(=O)CC(C)(C)C)C(C)(C)C)C(=O)C(F)(F)C(F)(F)F (some centres unmarked) [Compound 306] | 0.5
CC(NC(=O)[C@H](CCC(=O)N(C)C)NC(=O)[C@@H](NC(=O)CC(C)(C)C)C(C)(C)C)C(=O)C(F)(F)C(F)(F)F (some centres unmarked) [Compound 307] | 2
CC(NC(=O)[C@H](CC(=O)N1CCOCC1)NC(=O)[C@@H](NC(=O)CC(C)(C)C)C(C)(C)C)C(=O)C(F)(F)C(F)(F)F (some centres unmarked) [Compound 308] | 0.3
CC[C@@H](NC(=O)C(=O)C(C)NC(=O)[C@H](CC(=O)N(C)CCc1ccccn1)NC(=O)[C@@H](NC(=O)CC(C)(C)C)C(C)(C)C)c1ccccc1 (some centres unmarked) [Compound 309] | 0.12
CC[C@@H](NC(=O)C(=O)C(C)NC(=O)[C@H](CS(N)(=O)=O)NC(=O)[C@@H](NC(=O)CC(C)(C)C)C(C)(C)C)c1ccccc1 (some centres unmarked) [Compound 310] | 0.97
CC(NC(=O)[C@@H](CC(=O)[C@@H](NC(=O)CC(C)(C)C)C(C)(C)C)CC(=O)C(C)(C)C)C(=O)C(F)(F)F (some centres unmarked) [Compound 311] | 6.8
C=CCOC(=O)OCCNC(=O)C(=O)C(C)NC(=O)[C@H](CC(=O)N(C)C)NC(=O)[C@@H](NC(=O)CC(C)(C)C)C(C)(C)C (some centres unmarked) [Compound 401] | 0.59
CC(NC(=O)[C@H](CC(=O)N(C)C)NC(=O)[C@@H](NC(=O)[C@@H](NC(=O)OC(C)(C)C)C(C)C)C(C)C)C(=O)C(=O)NCC(C)(C)C (some centres unmarked) [Compound 402] | 4.3
CC(NC(=O)[C@H](CC(=O)N(C)C)NC(=O)[C@@H](NC(=O)[C@@H](N)C(C)C)C(C)C)C(=O)C(=O)NCc1ccc(C(F)(F)F)cc1 (some centres unmarked) [Compound 404] | 1.7
CC(NC(=O)[C@H](CC(=O)N(C)C)NC(=O)[C@@H](NC(=O)CC(C)(C)C)C(C)(C)C)C(=O)C(=O)NCc1ccc(C(=O)N2CCOCC2)cc1 (some centres unmarked) [Compound 405] | 0.5
CCCCC[C@@H](C)NC(=O)C(=O)C(C)NC(=O)[C@H](CC(=O)N(C)C)NC(=O)[C@@H](NC(=O)CC(C)(C)C)C(C)(C)C (some centres unmarked) [Compound 406] | 0.8
CC(NC(=O)[C@H](CC(=O)N(C)C)NC(=O)[C@@H](NC(=O)CC(C)(C)C)C(C)(C)C)C(=O)C(=O)N[C@H](C)c1cccc2ccccc12 (some centres unmarked) [Compound 407] | 0.2
CC(NC(=O)[C@H](CC(=O)N(C)C)NC(=O)[C@@H](NC(=O)CC(C)(C)C)C(C)(C)C)C(=O)C(=O)NC[C@@H](C)c1ccccc1 (some centres unmarked) [Compound 408] | 0.2
Cc1ccc(NC(=O)C(=O)C(C)NC(=O)[C@H](CC(=O)N(C)C)NC(=O)[C@@H](NC(=O)[C@@H](NC(=O)OC(C)(C)C)C(C)C)C(C)C)cc1 (some centres unmarked) [Compound 409] | 1.4
CC(NC(=O)[C@H](CC(=O)N(C)C)NC(=O)[C@@H](NC(=O)[C@@H](NC(=O)OC(C)(C)C)C(C)C)C(C)C)C(=O)C(=O)Nc1ccccc1 (some centres unmarked) [Compound 410] | 1.5
CC(NC(=O)[C@H](CC(=O)N(C)C)NC(=O)[C@@H](NC(=O)[C@@H](NC(=O)OC(C)(C)C)C(C)C)C(C)C)C(=O)C(=O)NC1CCCCC1 (some centres unmarked) [Compound 411] | 1.8
CC(NC(=O)[C@H](CC(=O)N(C)C)NC(=O)[C@@H](NC(=O)[C@@H](NC(=O)OC(C)(C)C)C(C)C)C(C)C)C(=O)C(=O)NCCc1ccccc1 (some centres unmarked) [Compound 412] | 0.85
CC(NC(=O)[C@H](CC(=O)N(C)C)NC(=O)[C@@H](NC(=O)[C@@H](NC(=O)OC(C)(C)C)C(C)C)C(C)C)C(=O)C(=O)NCC1CCCCC1 (some centres unmarked) [Compound 413] | 4.4
CC(NC(=O)[C@H](CC(=O)N(C)C)NC(=O)[C@@H](NC(=O)[C@@H](NC(=O)OC(C)(C)C)C(C)C)C(C)C)C(=O)C(=O)Nc1cccc(C(N)=O)c1 (some centres unmarked) [Compound 414] | 1.6

Same assay, conditions: relative to compound 96

Structure (SMILES) | improvement of potency (factor) on removal of the Boc group
CC[C@@H](NC(=O)C(=O)C(C)NC(=O)[C@H](CC(=O)N(C)C)NC(=O)[C@@H](NC(=O)[C@@H](NC(=O)CCCCCN)C(C)(C)C)C(C)(C)C)c1ccccc1 (some centres unmarked) [Compound 97] | 2

Same assay, conditions: text of b731; read-out: IC50 value / potency

Structure (SMILES) | IC50 [µM]
CC[C@@H](NC(=O)C(=O)C(C)NC(=O)[C@H](CC(=O)N(C)C)NC(=O)[C@@H](NC(=O)[C@@H](NC(=O)CCCCCNC(=O)OC(C)(C)C)C(C)(C)C)C(C)(C)C)c1ccccc1 (some centres unmarked) [Compound 96] | 0.075
CC[C@@H](NC(=O)C(=O)C(C)NC(=O)[C@H](CC(=O)N(C)C)NC(=O)[C@@H](NC(=O)[C@@H](NC(=O)CCCCCN)C(C)(C)C)C(C)(C)C)c1ccccc1 (some centres unmarked) [Compound 97] | < 0.04

Target: T2, porcine pancreatic elastase (PPE) (Sus scrofa, UniProt P00772)
T2 construct: porcine pancreas elastase #1027891 lot 83260521-23; purchased Boehringer Mannheim #1027891
T2 sequence (P00772 27-266): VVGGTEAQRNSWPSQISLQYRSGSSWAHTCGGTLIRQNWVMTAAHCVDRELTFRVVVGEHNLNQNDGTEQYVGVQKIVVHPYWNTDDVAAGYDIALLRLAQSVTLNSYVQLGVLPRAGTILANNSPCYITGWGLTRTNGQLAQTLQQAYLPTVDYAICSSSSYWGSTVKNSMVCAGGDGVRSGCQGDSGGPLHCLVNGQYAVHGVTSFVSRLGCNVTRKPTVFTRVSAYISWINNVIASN
Assay: Specificity assay, porcine pancreatic elastase
Type: biochemical
Settings: not given
Description: The specificity of the compounds was determined against a variety of serine proteases (Human leukocyte and porcine pancreatic elastases (HLE & PPE), bovine pancreas α-chymotrypsin) and one cysteine protease (Human liver cathepsin B). In all cases a 96-well plate format protocol using a calorimetric p-nitroanilide (pNA) substrate specific for each enzyme was used. Each assay included a 1 hr pre-incubation enzyme-inhibitor at 30° C. followed by addition of substrate and hydrolysis to ≈30% conversion as measured by scanning on a UV Thermomax microplate reader. Substrate concentrations were kept as low as possible compared to KM to reduce substrate competition. […] The final conditions for each assay were as followed: 50 mM Tris/HCl pH 8, 0.5 M Na2 SO4, 50 mM NaCl, 0.1 mM EDTA, 3% DMSO, 0.01% Tween-20 with [100 μM Succ-AAPF-pNA and 250 pM α-chymotrypsin], [133 μM Succ-AAA-pNA and 8 nM porcine elastase], or [133 μM Succ-AAV-pNA and 8 nM leukocyte elastase]. 100 mM NaH2 PO4 pH 6, 0.1 mM EDTA, 3% DMSO, 1 mM TCEP, 0.01% Tween-20, 30 μM Z-FR-pNA and 5 nM cathepsin B (the stock enzyme was activated in buffer containing 20 mM TCEP before use).

Structure (SMILES) | potency against PPE relative to HCMV protease | inhibition of PPE
CC(NC(=O)[C@H](CC(=O)N(C)C)NC(=O)[C@@H](NC(=O)CC(C)(C)C)C(C)(C)C)C(=O)c1nc2ccccc2o1 (stereo partly drawn) [Compound 77, N1-[2-(1,3-benzoxazol-2-yl)-1-methyl-2-oxoethyl]-N4,N4-dimethyl-(2S)-2-{[(1S)-2,2-dimethyl-1-(neopentylcarboxamido)propyl]carboxamido}butanediamide] | seven fold more potent against PPE than against HCMV protease | 
CC(NC(=O)[C@H](CC(=O)N(C)C)NC(=O)[C@@H](NC(=O)CC(C)(C)C)C(C)(C)C)C(=O)c1nc2ncccc2o1 (stereo partly drawn) [Compound 81, N4,N4-dimethyl-N1-(1-methyl-2-[1,3]oxazolo[4,5-b]pyridin-2-yl-2-oxoethyl)-(2S)-2-{[(1S)-2,2-dimethyl-1-(neopentylcarboxamido)propyl]carboxamido} butanediamide] |  | not an inhibitor of PPE

Same assay, conditions: 1 hr pre-incubation at 30° C., Succ-AAA-pNA; read-out: IC50 against PPE

Structure (SMILES) | IC50 [nM]
CC(NC(=O)[C@H](CC(=O)N(C)C)NC(=O)[C@@H](NC(=O)CC(C)(C)C)C(C)(C)C)C(=O)c1nc2ccccc2s1 (stereo partly drawn) [Compound 80, N1-[2-(1,3-benzothiazol-2-yl)-1-methyl-2-oxoethyl]-N4,N4-dimethyl-(2S)-2-{[(1S)-2,2-di-methyl-1-(neopentylcarboxamido)propyl]carboxamido}butanediamide] | 9000
